This is an account of results in PubChem BioAssay (NCI).

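Step 1: Grow cells in 96-well plates. Step 2: Expose to compound for 48 hours at 5 concentrations. Step 3: Interpolate endpoints linearly; if unreached, use highest concentration. GI50 = concentration required for 50% inhibition of growth. At the TGI there is no net growth.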

Test systems include NCI-H522 lung; LOX IMVI melanoma; EKVX NSCLC; HOP-62 NSCLC; M19-MEL melanoma; DMS 114 small cell lung; HT29 colon; SK-OV-3 ovarian; XF 498 CNS; DU-145 prostate; MDA-MB-231 breast; MDA-N; DMS 273 small cell lung; KM20L2 colon.
Holding throughout (assay): NCI-60 cell line screen, 48 h

With `CCOC(=O)NC(=O)c1cn(CCNCCO)c(=O)[nH]c1=O`, the TGI in the test on NCI-H522 lung, in the test with LOX IMVI melanoma, in the test with EKVX NSCLC, in the test with HOP-62 NSCLC, with M19-MEL melanoma and in the test on DMS 114 small cell lung was more than 100 µM each time. Further, the TGI in the test with HT29 colon, in the test on SK-OV-3 ovarian and with XF 498 CNS was more than 100 µM throughout.
As for `OCCCNc1nc(=S)[nH]c2[nH]ncc12`, the GI50 in the test on NCI-H522 lung is 26.1 µM; in the test with LOX IMVI melanoma, 25.4 µM; with DU-145 prostate, 41.3 µM; in the test with EKVX NSCLC, 50.7 µM; with HT29 colon, 54.8 µM; with SK-OV-3 ovarian, 48.7 µM. Moreover, the TGI in the test on NCI-H522 lung is more than 100 µM; in the test on LOX IMVI melanoma, 84.5 µM; in the test on DU-145 prostate, more than 100 µM; with EKVX NSCLC, more than 100 µM; in the test with HT29 colon, more than 100 µM; in the test on SK-OV-3 ovarian it was more than 100 µM.
In the case of `COc1ccc(CC2CCc3nc(N)nc(N)c3C2)cc1OC` (stereo not given), the TGI was more than 75.2 µM in the test on MDA-MB-231 breast; 12.6 µM with NCI-H522 lung; 21.1 µM in the test on LOX IMVI melanoma; more than 44 µM with MDA-N; more than 91.2 µM in the test with EKVX NSCLC; more than 100 µM with HOP-62 NSCLC. Moreover, the TGI with HT29 colon was more than 24.5 µM; with SK-OV-3 ovarian it was more than 100 µM.
Take `c1nc(N2CC2)c2cnn(C3CCCCO3)c2n1` (stereo not given): the TGI with MDA-MB-231 breast, in the test on NCI-H522 lung, in the test on LOX IMVI melanoma, with DMS 273 small cell lung, in the test on MDA-N and with DU-145 prostate was more than 100 µM each time. Also, the TGI in the test on EKVX NSCLC, in the test on HOP-62 NSCLC, in the test with KM20L2 colon, with M19-MEL melanoma, with DMS 114 small cell lung and with HT29 colon was more than 100 µM throughout. The TGI in the test on SK-OV-3 ovarian and in the test on XF 498 CNS was more than 100 µM each time.
For the compound `O=C(N/N=C/C=C/c1ccccc1)[C@H](O)[C@@H](O)C(=O)N/N=C/C=C/c1ccccc1`, the TGI with NCI-H522 lung, with LOX IMVI melanoma, in the test with DMS 273 small cell lung, in the test on EKVX NSCLC, with KM20L2 colon and in the test on M19-MEL melanoma was more than 100 µM throughout. For the same compound, the TGI with DMS 114 small cell lung is more than 100 µM.
